Data taken from US6277859A, “Morphinan derivative and its pharmaceutical applications” (priority 1992, dated 2001).
Structures can show the parent of a compound that is named as a salt.

Assays:
[1] = tested on: Wistar rats; experiment: Evaluation of diuretic action; type: in vivo, rat (male Wistar); conditions: sc, rat, s.c., urine output for 5 h after 20 ml/kg saline oral; for ED200: read-out: ED200, diuretic action (dose giving urine output of 200, non-dosed group = 100); for ED500: read-out: ED500, diuretic action (dose giving urine output of 500, non-dosed group = 100)
Description: Evaluation of Diuretic Action
7-8 week old male Wistar rats were used in this test after prohibiting from drinking water for 1 hour before testing. After discharging any urine accumulated in the bladder by gently stimulating the lower abdomens of the animals, the drug was administered subcutaneously. After 30 minutes, the animals were then forcibly given 20 ml/kg of physiological saline orally. The animals were then placed in metabolic cages immediately after administration of the drug (2 animals/cage) and urine output for 5 hours after loading with physiological saline was measured. Drug efficacy was expressed in the form of those doses resulting in urine outputs of 200 and 500, respectively, when the urine output of a non-dosed group was taken to be 100. Those doses were expressed as the ED200 and ED500 values, respectively.

[2] = target: T1, κ receptor (Mus musculus, UniProt P33534); experiment: Ke with norBNI in isolated mouse vas deference preparation; type: cell-based, mouse (male ddy); conditions: for Ke norBNI: norBNI (κ)
T1 construct: The isolated vas deference was filled with Krebes-Henseleit solution; from tissue; host or cells: isolated vas deferens of male ddy mouse
T1 sequence (P33534 whole entry): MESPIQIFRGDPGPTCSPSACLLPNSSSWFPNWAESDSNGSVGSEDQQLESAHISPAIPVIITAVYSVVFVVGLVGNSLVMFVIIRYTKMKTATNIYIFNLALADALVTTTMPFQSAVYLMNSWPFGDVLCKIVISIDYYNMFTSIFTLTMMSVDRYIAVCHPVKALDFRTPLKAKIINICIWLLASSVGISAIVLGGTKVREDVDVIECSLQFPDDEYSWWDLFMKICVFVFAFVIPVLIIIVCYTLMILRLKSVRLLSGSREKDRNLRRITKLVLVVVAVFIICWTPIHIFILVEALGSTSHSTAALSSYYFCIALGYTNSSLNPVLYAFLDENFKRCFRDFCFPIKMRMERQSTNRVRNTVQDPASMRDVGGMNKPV
Description: (§1) A male ddy mouse was used in this test. The isolated vas deference was filled with Krebes-Henseleit solution (NaCl 118 mM; KCl 4.7 mM; CaCl2 2.5 mM; KH2 PO4 1.1 mM; NaHCO3 25 mM; and glucose 10 mM) warmed to 37° C. and suspended in a Magnus tube ventilated with 5% carbon dioxide and 95% oxygen. Electrical stimulus was performed at 0.1 Hz for 5.0 ms by means of ring-shaped platinum electrodes located above and below. Tissue contractions were recorded on a polygraph using an isometric transducer.
(§2) Then after adequately washing with nutrient solution and the contraction reaction stabilized, naloxone, a μ […], NTI, a δ […], or norBNI, a κ […], were added and the test compound was again cumulatively added after roughly 20 minutes. The Ke value was calculated using the following calculation formula from the difference in the efficacies of both agonists.
(§3) Ke=[Conc. of added agonist]/(IC50 ratio-1)
(§4) IC50 ratio IC50 in the presence of agonist/IC50 in the absence of agonist

[3] = target: T2, μ receptor (Mus musculus, UniProt P42866); experiment: Ke with naloxone in isolated mouse vas deference preparation; type: cell-based, mouse (male ddy)
T2 construct: The isolated vas deference was filled with Krebes-Henseleit solution; from tissue; host or cells: isolated vas deferens of male ddy mouse
T2 sequence (P42866 whole entry): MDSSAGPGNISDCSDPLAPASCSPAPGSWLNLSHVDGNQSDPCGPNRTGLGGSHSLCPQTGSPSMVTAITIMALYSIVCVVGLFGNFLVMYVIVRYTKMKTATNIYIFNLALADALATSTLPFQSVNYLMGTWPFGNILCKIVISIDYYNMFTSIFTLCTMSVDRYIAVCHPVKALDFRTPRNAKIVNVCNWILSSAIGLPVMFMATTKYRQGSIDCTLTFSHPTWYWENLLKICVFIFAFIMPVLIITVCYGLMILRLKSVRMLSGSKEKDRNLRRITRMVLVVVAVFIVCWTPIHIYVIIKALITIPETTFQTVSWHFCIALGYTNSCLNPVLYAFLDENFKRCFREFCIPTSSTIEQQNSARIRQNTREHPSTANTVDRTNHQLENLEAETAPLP
Description: as §1, §2, §3, §4

[4] = target: T3, δ receptor (Mus musculus, UniProt P32300); experiment: Ke with NTI in isolated mouse vas deference preparation; type: cell-based, mouse (male ddy); conditions: for Ke NTI: NTI (δ)
T3 construct: The isolated vas deference was filled with Krebes-Henseleit solution; from tissue; host or cells: isolated vas deferens of male ddy mouse
T3 sequence (P32300 whole entry): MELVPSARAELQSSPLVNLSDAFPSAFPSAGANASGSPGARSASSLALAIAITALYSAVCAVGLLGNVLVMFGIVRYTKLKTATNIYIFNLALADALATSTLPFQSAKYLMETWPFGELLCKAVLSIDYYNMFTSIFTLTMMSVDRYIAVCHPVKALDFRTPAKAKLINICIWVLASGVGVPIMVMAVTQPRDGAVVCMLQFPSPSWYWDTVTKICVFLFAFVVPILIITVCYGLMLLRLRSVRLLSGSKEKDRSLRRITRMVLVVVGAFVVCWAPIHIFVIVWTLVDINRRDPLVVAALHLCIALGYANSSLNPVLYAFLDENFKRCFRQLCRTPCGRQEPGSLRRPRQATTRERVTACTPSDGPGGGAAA
Description: as §1, §2, §3, §4

SMILES	ED200 [1]	selective agonist for κ receptors (in words) [2]	Ke norBNI [2]	Ke NTI [4]	other results
CN(C(=O)Cc1ccc(Br)cc1)[C@H]1CC[C@@]2(O)[C@H]3Cc4ccc(O)c5c4[C@@]2(CCN3CC2CC2)[C@H]1O5 [Compound 28, 17-cyclopropylmethyl-3,14β-dihydroxy-4,5α-epoxy-6α-(N-methyl-4-bromophenylacetamido)morphinan.hydrobromide]	0.02 mg/kg	–	–	–	–
CN(C(=O)CC(=O)c1ccccc1)[C@@H]1CC[C@@]2(O)[C@H]3Cc4ccc(O)c5c4[C@@]2(CCN3CC2CC2)[C@H]1O5 [Compound 103, 17-cyclopropylmethyl-3,14β-dihydroxy-4,5α-epoxy-6β-(N-methylbenzoylacetamido)morphinan.tartrate]	–	selective agonists for κ receptors	0.657 nM	–	–
CN(C(=O)Cc1cccc(C(F)(F)F)c1)[C@H]1CC[C@@]2(O)[C@H]3Cc4ccc(O)c5c4[C@@]2(CCN3CC2CC2)[C@H]1O5 [Compound 108, 17-cyclopropylmethyl-3,14β-dihydroxy-4,5α-epoxy-6α-(N-methyl-3-trifluoromethylphenylacetamido) morphinan.hydrochloride]	0.021 mg/kg	–	–	–	–
CN(C(=O)/C=C/C1CCCCC1)[C@H]1CC[C@@]2(O)[C@H]3Cc4ccc(O)c5c4[C@@]2(CCN3CC2CC2)[C@H]1O5 [Compound 50, 17-cyclopropylmethyl-4,5α-epoxy-3,14β-dihydroxy-6α-(N-methyl-trans-3-cyclohexylacrylamido)morphinan.hydrochloride]	0.0021 mg/kg	–	–	–	–
CN(C(=O)C#Cc1ccc(C(F)(F)F)cc1)[C@H]1CC[C@@]2(O)[C@H]3Cc4ccc(O)c5c4[C@@]2(CCN3CC2CC2)[C@H]1O5 [Compound 126, 17-Cyclopropylmethyl-3,14β-dihydroxy-4,5α-epoxy-6α-[N-methyl-3-(4-trifluoromethylphenyl)propiolamido] morphinan.0.5 tartrate]	–	–	1.20 nM	0.0065 nM	Ke Naloxone [3]: 40.2 nM; selective agonist for δ receptors (in words) [4]: selective agonists for δ receptors
CCCCCCC(=O)N(C)[C@H]1CC[C@@]2(O)[C@H]3Cc4ccc(O)c5c4[C@@]2(CCN3CC2CC2)[C@H]1O5 [Compound 46, 17-cyclopropylmethyl-3,14β-dihydroxy-4,5α-epoxy-6α-(N-methylheptanamido)morphinan.hydrochloride]	–	selective agonists for κ receptors	0.440 nM	–	–
CN(C(=O)Cc1ccc(Cl)c(Cl)c1)[C@@H]1CC[C@@]2(O)[C@H]3Cc4ccc(O)c5c4[C@@]2(CCN3CC2CC2)[C@H]1O5 [Compound 53, 17-cyclopropylmethyl-4,5α-epoxy-3,14β-dihydroxy-6β-(N-methyl-3,4-dichlorophenylacetoamido)morphinan.hydrochloride]	–	–	0.21 nM	1676 nM	–
CN(C(=O)OCc1ccccc1)[C@@H]1CC[C@@]2(O)[C@H]3Cc4ccc(O)c5c4[C@@]2(CCN3CC2CC2)[C@H]1O5 [Compound 56, 17-cyclopropylmethyl-3,14β-dihydroxy-4,5α-epoxy-60-(N-methylbenzyloxycarbamido)morphinan.hydrochloride]	0.0028 mg/kg	–	–	–	–
CN(C(=O)Cc1ccc(F)c(F)c1)[C@H]1CC[C@@]2(O)[C@H]3Cc4ccc(O)c5c4[C@@]2(CCN3CC2CC2)[C@H]1O5 [Compound 105, 17-cyclopropylmethyl-3,14β-dihydroxy-4,5α-epoxy-6α-(N-methyl-3,4-difluorophenylacetamido)morphinan.hydrochloride]	0.019 mg/kg	–	–	–	ED500 [1]: 3.3 mg/kg
C=CCN1CC[C@]23c4c5ccc(O)c4O[C@H]2[C@@H](N(C)C(=O)Cc2ccc(Cl)c(Cl)c2)CC[C@@]3(O)[C@H]1C5 [Compound 122, 17-allyl-3,14β-dihydroxy-4,5α-epoxy-6α-(N-methyl-3,4-dichlorophenylacetamido)morphinan.hydrochloride]	–	selective agonists for κ receptors	0.358 nM	42.7 nM	Ke Naloxone [3]: 59.5 nM
CN(C(=O)CCc1ccccc1)[C@@H]1CC[C@@]2(O)[C@H]3Cc4ccc(O)c5c4[C@@]2(CCN3CC2CC2)[C@H]1O5 [Compound 57, 17-cyclopropylmethyl-3,14β-dihydroxy-4,5α-epoxy-60-(N-methyl-3-phenylpropionamido) morphinan.hydrochloride]	–	selective agonists for κ receptors	0.0124 nM	747 nM	–
CN(C(=O)/C=C/c1cccc([N+](=O)[O-])c1)[C@@H]1CC[C@@]2(O)[C@H]3Cc4ccc(O)c5c4[C@@]2(CCN3CC2CC2)[C@H]1O5 [Compound 104, 17-cyclopropylmethyl-3,14β-dihydroxy-4,5α-epoxy-6β-(N-methyl-3-nitrocinnamamido)morphinan.tartrate]	–	–	1.40 nM	89 nM	Ke Naloxone [3]: 185 nM
CCCCCC(=O)N(C)[C@@H]1CC[C@@]2(O)[C@H]3Cc4ccc(O)c5c4[C@@]2(CCN3CC2CC2)[C@H]1O5 [Compound 62, 17-cyclopropylmethyl-3,14β-dihydroxy-4,5α-epoxy-6β-(N-methylhexanamido)morphinan.tartrate]	–	selective agonists for κ receptors	0.203 nM	90.2 nM	–
O=C(Cc1ccc(Cl)c(Cl)c1)N[C@H]1CC[C@@]2(O)[C@H]3Cc4ccc(O)c5c4[C@@]2(CCN3CC2CC2)[C@H]1O5 [Compound 52, 17-cyclopropylmethyl-4,5α-epoxy-3,14β-dihydroxy-6α-(3,4-dichlorophenylacetoamido) morphinan.hydrochloride]	–	selective agonists for κ receptors	–	–	–
CN(C(=O)/C=C/c1ccc(Cl)c(Cl)c1)[C@H]1CC[C@@]2(O)[C@H]3Cc4ccc(O)c5c4[C@@]2(CCN3CC2CC2)[C@H]1O5 [Compound 86, 17-cyclopropylmethyl-3,14β-dihydroxy-4,5α-epoxy-6α-(N-methyl-3,4-dichlorocinnamamido) morphinan.hydrochloride]	0.0057 mg/kg	–	–	–	–
CN(C(=O)/C=C/c1ccsc1)[C@H]1CC[C@@]2(O)[C@H]3Cc4ccc(O)c5c4[C@@]2(CCN3CC2CC2)[C@H]1O5 [Compound 91, 17-cyclopropylmethyl-3,14β-dihydroxy-4,5α-epoxy-6α-[N-methyl-trans-3-(3-thienyl)acrylamido]morphinan.tartrate]	0.0094 mg/kg	selective agonists for κ receptors	0.699 nM	450 nM	ED500 [1]: 0.96 mg/kg
CC(=O)Oc1ccc2c3c1O[C@H]1[C@H](N(C)C(=O)/C=C/c4cccc(C(F)(F)F)c4)CC[C@@]4(O)[C@@H](C2)N(CC2CC2)CC[C@]314 [Compound 141, 17-cyclopropylmethyl-3-acetoxy-14β-hydroxy-4,5α-epoxy-6β-(N-methyl-3-trifluoromethylcinnamamido)morphinan.tartrate]	–	selective agonists for κ receptors	1.39 nM	184 nM	Ke Naloxone [3]: 142 nM
CN(C(=O)/C=C/c1ccc(C(F)(F)F)cc1)[C@@H]1CC[C@@]2(O)[C@H]3Cc4ccc(O)c5c4[C@@]2(CCN3CC2CC2)[C@H]1O5 [Compound 73, 17-cyclopropylmethyl-3,14,β-dihydroxy-4,5α-epoxy-6β-(N-methyl-4-trifluoromethylcinnamamido) morphinan.tartrate]	–	selective agonists for κ receptors	0.272 nM	78 nM	Ke Naloxone [3]: 524 nM
CN(C(=O)Cc1csc2ccccc12)[C@H]1CC[C@@]2(O)[C@H]3Cc4ccc(O)c5c4[C@@]2(CCN3CC2CC2)[C@H]1O5 [Compound 107, 17-cyclopropylmethyl-3,14β-dihydroxy-4,5α-epoxy-6α-(N-methyl-3-benzo[b]thienylacetamido)morphinan.hydrochloride]	0.0061 mg/kg	–	–	–	ED500 [1]: 0.2 mg/kg
CCC/C=C/C(=O)N(C)[C@H]1CC[C@@]2(O)[C@H]3Cc4ccc(O)c5c4[C@@]2(CCN3CC2CC2)[C@H]1O5 [Compound 95, 17-cyclopropylmethyl-3,14β-dihydroxy-4,5α-epoxy-6α-(N-methyl-trans-2-hexenamido)morphinan.tartrate]	0.0028 mg/kg	–	–	–	–
CCCCOC(=O)N(C)[C@@H]1CC[C@@]2(O)[C@H]3Cc4ccc(O)c5c4[C@@]2(CCN3CC2CC2)[C@H]1O5 [Compound 59, 17-cyclopropylmethyl-3,14β-dihydroxy-4,5α-epoxy-6β-(N-methylbutyroxycarbamido)morphinan.tartrate]	–	selective agonists for κ receptors	0.151 nM	47.3 nM	Ke Naloxone [3]: 21.3 nM
